This experiment relates to human fibrosarcoma HT1080 cells. The experiment in a line: Velocity of matrix-embedded cells in 3D collagen I matrix (live-cell tracking). The format is cell-based. The settings on record: for cell velocity: human fibrosarcoma cells embedded in a 3D matrix at LD (ρ=10) and HD (ρ=50), compared to cells exposed to fresh medium (0); for cell-density-dependent migration: matrix-embedded cells at low and high cell densities; for cell velocity / cell migration on addition of recombinant cytokine: HT1080 seeded at low density (10 cells/mm^3), combination at the precise concentrations found at 50 cells/mm^3, ratio 5:2. How it is done: HT1080 cells were embedded in 2mg/ml type I collagen gel as described previously by Fraley et al^20. Briefly, cell suspensions containing 5000 to 75,000 cells in 1:1 (v/v) ratio of cell culture media and reconstitution buffer were mixed with appropriate volume of soluble rat-tail collagen I (Corning Inc.) to obtain a final collagen I concentration of 2 mg/ml. A calculated amount of 1M NaOH was added quickly and the final solution was mixed well to bring the pH to ˜7. The cell suspensions was added to a 24-well coverslip-bottom cell-culture dish and immediately transferred to an incubator maintained at 36° C. to allow polymerization. Fresh medium was added 1 h before imaging. MDA MB 231 and U-87 cells were embedded in 1 mg/ml type I collagen matrix
Phase-contrast images of matrix-embedded cells were recorded 2 min apart for 16.5 h using a Cascade 1K CCD camera (Roper Scientific) mounted on a Nikon TE2000 microscope with a 10× objective lens. Single cells were tracked using Metamorph imaging software. A custom MATLAB program calculated the velocity for each cell using the x- and y-coordinates obtained from tracking data using the following equation: […]
Recombinant IL-6 and IL-8 (R&D systems) reconstituted in DPBS (Life technologies) were added to matrix embedded cells with a cell density of 10 cells/mm^3 and imaged as described above (See velocity and protrusion topology of matrix embedded cells). Matrix embedded cells with cell densities of 10 cells/mm^3 and 50 cells/mm^3 were exposed to specific IL-6 and IL-8 functional antibodies (Proteintech) at a concentration of 0.5 μg/mL. Matrix embedded cells with cell densities of 10 cells/mm^3 and 50 cells/mm^3 were exposed to Tocilizumab (Roche) and Reparixin (Dompe pharmaceuticals) STAT3 and WASF3 activity
Matrix embedded with cell densities of 10 cells/mm^3 and 50 cells/mm^3 were exposed to JAK2 inhibitor, AG-490 (Santa Cruz Biotechnology), STAT3 inhibitor, S31-201, (Santa Cruz Biotechnology) and ARP 2/3 complex inhibitor, CK 666, (Sigma-Aldrich) for 1 h before cells were imaged as described above. (See velocity and protrusion topology of matrix embedded cells)

Experimental findings from patent US20170165363A1, “CANCER CELL MIGRATION INHIBITORS AND THEIR USE IN THERAPEUTIC TREATMENTS” (THE JOHNS HOPKINS UNIVERSITY, priority 2015, published 2017) are described below.

As to `N#C/C(=C/c1ccc(O)c(O)c1)C(=O)NCc1ccccc1` [AG-490], the cell velocity entry was “Decreased cell velocity” and the cell-density-dependent migration entry is reported as “prevented cell-density-dependent migration”. Take `Cc1ccc(S(=O)(=O)OCC(=O)Nc2ccc(C(=O)O)c(O)c2)cc1` [S3I-201]: the cell velocity result is “Decreased cell velocity” and the cell-density-dependent migration entry is “prevented cell-density-dependent migration”. Take `CC(C)Cc1ccc([C@@H](C)C(=O)NS(C)(=O)=O)cc1` [Reparixin, (2R)-2-[4-(2-methylpropyl)phenyl]-N-methylsulfonylpropanamide]: the cell velocity result was “decreased cell velocity”. Turning to `Cc1[nH]c2ccccc2c1CCNC(=O)c1ccccc1F` [CK666], the cell velocity entry is listed as “Decreased cell velocity” and the cell-density-dependent migration entry is listed as “prevented cell-density-dependent migration”. With “recombinant IL-8: human recombinant IL-8 (R&D systems)”, the “cell velocity / cell migration on addition of recombinant cytokine” value (from here on “cell velocity / cell migration”) was “do not increase cell velocity”. Further, for the setting “listed as IL-8”, the “cell velocity / cell migration” value was “no effect on cell migration”. Regarding “recombinant IL-6: human recombinant IL-6 (R&D systems)”, the “cell velocity / cell migration” value is given as “do not increase cell velocity”. Moreover, the “cell velocity / cell migration” value (listed as IL-6) is reported as “no effect on cell migration”.

For the molecule “Tocilizumab: a recombinant humanized, anti-human IL-6 receptor monoclonal antibody currently used in the treatment of Rheumatoid Arthritis”, the cell velocity entry is reported as “decreased cell velocity”.
